# Reference: patent US20140249135A1, “PIM KINASE INHIBITORS AND METHODS OF THEIR USE” (NOVARTIS AG, priority 2007, published 2014)
# pIC50: −log10 of the molar value. Like-named read-outs stand apart in the source and are kept apart here.
# Key:
# Format in all cases: biochemical
# Pim1 kinase = Pim1 kinase (Homo sapiens, UniProt P11309); experiment: Pim1 ATP depletion assay; conditions: Pim1 ATP depletion assay; for pIC50: read-out: PIM1 IC50; for IC50: read-out: IC50 (μM) PIM1;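 for all read-outs here: Luciferase-luciferin luminescence readout of residual ATP after PIM1 transfers phosphate to a peptide substrate, 40 µM ATP added, reaction run to roughly half ATP consumption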
# Pim2 kinase = Pim2 kinase (Homo sapiens, UniProt Q9P1W9); experiment: Pim2 ATP depletion assay; conditions: for pIC50: read-out: PIM2 IC50; for IC50: read-out: IC50 (μM) PIM2;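 for all read-outs here: Luciferase-based luminescent readout of ATP remaining after PIM2 phosphorylates a BAD peptide, final 5 nM enzyme, 4 µM ATP, 10 µM peptide, 2.5% DMSO, run to roughly half ATP consumption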
# Pim3 kinase = Pim3 kinase (Homo sapiens, UniProt Q86V86); experiment: Pim3 ATP depletion assay; conditions: for pIC50: read-out: PIM3 IC50; for IC50: read-out: IC50 (μM) PIM3
# Pim1 kinase, sequence (P11309 whole entry): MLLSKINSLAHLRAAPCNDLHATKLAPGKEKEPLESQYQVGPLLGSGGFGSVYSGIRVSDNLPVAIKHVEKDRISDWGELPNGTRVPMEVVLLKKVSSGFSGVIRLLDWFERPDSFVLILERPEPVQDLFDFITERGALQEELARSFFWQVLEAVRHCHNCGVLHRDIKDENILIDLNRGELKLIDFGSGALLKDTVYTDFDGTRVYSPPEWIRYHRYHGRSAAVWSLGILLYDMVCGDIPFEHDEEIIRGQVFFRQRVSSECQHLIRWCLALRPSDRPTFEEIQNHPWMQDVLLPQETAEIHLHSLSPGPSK
# Pim2 kinase, sequence (Q9P1W9 whole entry): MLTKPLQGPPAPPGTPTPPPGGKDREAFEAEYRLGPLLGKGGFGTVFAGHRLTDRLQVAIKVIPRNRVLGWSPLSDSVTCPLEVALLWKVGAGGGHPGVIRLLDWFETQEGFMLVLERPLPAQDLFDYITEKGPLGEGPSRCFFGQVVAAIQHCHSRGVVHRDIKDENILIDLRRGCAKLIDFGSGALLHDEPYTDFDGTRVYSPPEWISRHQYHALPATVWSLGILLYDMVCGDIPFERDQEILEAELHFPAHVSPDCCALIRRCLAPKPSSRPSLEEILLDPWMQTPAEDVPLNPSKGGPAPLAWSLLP
SMILES,pIC50 (Pim1 kinase),pIC50 (Pim2 kinase),pIC50 (Pim3 kinase),IC50 (Pim1 kinase) [µM],IC50 (Pim2 kinase) [µM],IC50 (Pim3 kinase) [µM]
"Cc1ccc(F)c(-c2ccc(N)c(C(=O)Nc3cnccc3N3CCC[C@H](N)C3)n2)n1 [Example 709, 5-Amino-3′-fluoro-6′-methyl-[2,2′]bipyridinyl-6-carboxylic acid (3-amino-3,4,5,6-tetra-hydro-2H-[1,4′]bipyridinyl-3′-yl)-amide]",> 6.00,> 6.00,> 6.00,,,
"Cc1ccnc(-c2nc(C(=O)Nc3cnccc3N3CCC[C@H](N)C3)c(N)cc2F)c1F [Example 737, 5-Amino-3,3′-difluoro-4′-methyl-[2,2′]bipyridinyl-6-carboxylic acid (3-amino-3,4,5,6-tetrahydro-2H-[1,4′]bi-pyridinyl-3′-yl)-amide]",> 6.00,> 6.00,> 6.00,,,
"Cc1cc(-c2ccncc2NC(=O)c2nc(-c3nccs3)ccc2N)cc(N)n1 [Example 641, 3-amino-N-(2′-amino-6′-methyl-4,4′-bipyridin-3-yl)-6-(1,3-thiazol-2-yl)pyridine-2-carboxamide]",> 6.00,> 6.00,> 6.00,,,
"CCNC(=O)c1ccc(F)c(-c2ncc(N)c(C(=O)Nc3cnccc3N3CCC[C@H](N)C3)n2)c1 [Example 540, 5-Amino-2-(5-ethylcarbamoyl-2-fluoro-phenyl)-pyrimidine-4-carboxylic acid (3-amino-3,4,5,6-tetrahydro-2H-[1,4′]bipyridinyl-3′-yl)-amide]",> 6.00,> 6.00,> 6.00,,,
"Nc1ccc(-c2cccc(-n3cccn3)n2)nc1C(=O)Nc1cnccc1N1CCC[C@H](N)C1 [Example 703, 5-Amino-6′-pyrazol-1-yl-[2,2′]bipyridinyl-6-carboxylic acid (3-amino-3,4,5,6-tetra-hydro-2H-[1,4′]bipyridinyl-3′-yl)-amide]",> 6.00,> 6.00,> 6.00,,,
"Nc1ccc(-c2ccc(Cl)cc2F)nc1C(=O)Nc1cnccc1N1CCC[C@H](N)C1 [Example 420, 3-amino-6-(4-chloro-2-fluoro-phenyl)-pyridine-2-carboxylic acid ((S)-3-amino-3,4,5,6-tetra-hydro-2H-[1,4′]bipyridinyl-3′-yl)-amide]",,,,< 1,< 1,< 1
"Nc1ccc(-c2ccsc2)nc1C(=O)Nc1cnccc1N1CCC[C@H](N)C1 [Example 449, 3-Amino-6-thiophen-3-yl-pyridine-2-carboxylic acid (3-amino-3,4,5,6-tetrahydro-2H-[1,4′]bipyridinyl-3′-yl)-amide]",,,,< 1,< 1,< 1
"COc1cc(N)nc(-c2ccncc2NC(=O)c2nc(-c3c(F)cccc3F)ccc2N)c1 [Example 622, 3-Amino-6-(2,6-difluoro-phenyl)-pyridine-2-carboxylic acid (6-amino-4-methoxy-[2,4′]bipyridinyl-3′-yl)-amide]",> 6.00,> 6.00,> 6.00,,,
"Nc1ccc(-c2c(F)cccc2F)nc1C(=O)Nc1cnccc1N1CCCCCCC1 [Example 167, 3-Amino-6-(2,6-difluoro-phenyl)-pyridine-2-carboxylic acid (4-azocan-1-yl-pyridin-3-yl)-amide]",,,,< 1,1 to 10,< 1
"Cc1nc(N)cc(-c2ccncc2NC(=O)c2nc(-c3nccs3)ccc2N)n1 [Example 643, 3-amino-N-[4-(6-amino-2-methylpyrimidin-4-yl)pyridin-3-yl]-6-(1,3-thiazol-2-yl)pyridine-2-carboxamide]",> 6.00,> 6.00,> 6.00,,,
"CCCCOc1ccc(F)c(-c2ccc(N)c(C(=O)Nc3cnccc3N3CCC[C@H](N)C3)n2)c1F [Example 466, 3-Amino-6-(3-butoxy-2,6-difluoro-phenyl)-pyridine-2-carboxylic acid (3-amino-3,4,5,6-tetrahydro-2H-[1,4′]bipyridinyl-3′-yl)-amide]",,,,< 1,< 1,< 1
"CC(C)NC(=O)c1ccc(F)c(-c2ccc(N)c(C(=O)Nc3cnccc3N3CCC[C@H](N)C3)n2)c1F [Example 503, 3-Amino-6-(2,6-difluoro-3-isopropylcarbamoyl-phenyl)-pyridine-2-carboxylic acid (3-amino-3,4,5,6-tetrahydro-2H-[1,4′]bipyridinyl-3′-yl)-amide]",,,,< 1,< 1,< 1
"Nc1cc(-c2ccncc2NC(=O)c2nc(-c3ccc(CN4CCOCC4)cc3)ccc2N)nc(C(F)(F)F)n1 [Example 572, 3-Amino-6-(4-morpholin-4-ylmethyl-phenyl)-pyridine-2-carboxylic acid [4-(6-amino-2-trifluoromethyl-pyrimidin-4-yl)-pyridin-3-yl]-amide]",> 6.00,> 6.00,> 6.00,,,
"Cc1ccc(S(=O)(=O)N2CCCCC2)cc1-c1ccc(N)c(C(=O)Nc2cnccc2N2CCC[C@H](N)C2)n1 [Example 318, 3-amino-6-[2-methyl-5-(piperidine-1-sulfonyl)-phenyl]-pyridine-2-carboxylic acid ((S)-3-amino-3,4,5,6-tetrahydro-2H-[1,4′]bi-pyridinyl-3′-yl)-amide]",,,,< 1,< 1,< 1
"Nc1ccc(-c2c(F)cccc2F)nc1C(=O)Nc1cnccc1N1CCCCCC1 [Example 169, 3-Amino-6-(2,6-difluoro-phenyl)-pyridine-2-carboxylic acid (4-azepan-1-yl-pyridin-3-yl)-amide]",,,,< 1,< 1,< 1
"Nc1ccc(-c2ccccc2F)nc1C(=O)Nc1cnccc1-c1ccncc1 [Example 606, 3-amino-N-4,4′-bipyridin-3-yl-6-(2-fluorophenyl)-pyridine-2-carboxamide]",> 6.00,> 6.00,> 6.00,,,
"Cc1cnccc1-c1ccncc1NC(=O)c1nc(-c2ccccc2F)ccc1N [Example 613, 3-amino-6-(2-fluorophenyl)-N-(3′-methyl-4,4′-bipyridin-3-yl)pyridine-2-carboxamide]",> 6.00,> 6.00,> 6.00,,,
"Cc1cc(-c2ccncc2NC(=O)c2nc(-c3c(F)cccc3F)ccc2N)cc(N)n1 [Example 623, 3-amino-N-(2′-amino-6′-methyl-4,4′-bipyridin-3-yl)-6-(2,6-difluorophenyl)pyridine-2-carboxamide]",> 6.00,> 6.00,> 6.00,,,
"Nc1ccc(-c2ccc(Cl)cn2)nc1C(=O)Nc1cnccc1N1CCC[C@H](N)C1 [Example 713, 5-Amino-5′-chloro-[2,2′]bi-pyridinyl-6-carboxylic acid (3-amino-3,4,5,6-tetrahydro-2H-[1,4′]bipyridinyl-3′-yl)-amide]",> 6.00,> 6.00,> 6.00,,,
"Nc1cnc(-c2ccccc2F)nc1C(=O)Nc1cnccc1N1CC[C@@H](O)[C@H](N)C1 (stereo in doubt) [Example 662, 5-Amino-2-(2-fluoro-phenyl)-pyrimidine-4-carboxylic acid (3-amino-4-hydroxy-3,4,5,6-tetrahydro-2H-[1,4′]bi-pyridinyl-3′-yl)-amide]",> 6.00,> 6.00,> 6.00,,,
"Nc1ccc(-c2c(F)cccc2F)nc1C(=O)Nc1cnccc1-c1cc(Cl)nc(C(F)(F)F)c1 [Example 621, 3-amino-N-[2′-chloro-6′-(trifluoromethyl)-4,4′-bipyridin-3-yl]-6-(2,6-difluorophenyl)pyridine-2-carboxamide]",> 6.00,> 6.00,> 6.00,,,
"Nc1cncc(-c2ccncc2NC(=O)c2nc(-c3ccccc3F)ccc2N)n1 [Example 625, 3-amino-N-[4-(6-amino-pyrazin-2-yl)pyridin-3-yl]-6-(2-fluorophenyl)pyridine-2-carboxamide]",> 6.00,> 6.00,> 6.00,,,
"CC(C)c1cccc(-c2ccc(N)c(C(=O)Nc3cnccc3N3CCC[C@H](N)C3)n2)c1 [Example 456, 3-Amino-6-(3-isopropyl-phenyl)-pyridine-2-carboxylic acid (3-amino-3,4,5,6-tetrahydro-2H-[1,4′]bipyridinyl-3′-yl)-amide]",,,,< 1,< 1,< 1
"Cc1ccccc1-c1ccc(N)c(C(=O)Nc2cnccc2N2CCC[C@H](N)C2)n1 [Example 338, 3-amino-6-o-tolyl-pyridine-2-carboxylic acid ((S)-3-amino-3,4,5,6-tetrahydro-2H-[1,4′]bi-pyridinyl-3′-yl)-amide]",,,,< 1,< 1,< 1
"Nc1ccc(-c2ncccc2Cl)nc1C(=O)Nc1cnccc1N1CCC[C@H](N)C1 [Example 719, 5-Amino-3′-chloro-[2,2′]bi-pyridinyl-6-carboxylic acid (3-amino-3,4,5,6-tetrahydro-2H-[1,4′]bipyridinyl-3′-yl)-amide]",> 6.00,> 6.00,> 6.00,,,
"CC(C)Oc1ccc(F)c(-c2ccc(N)c(C(=O)Nc3cnccc3N3CCC[C@H](O)C3)n2)c1F [Example 652, 3-Amino-6-(2,6-difluoro-3-isopropoxy-phenyl)-pyridine-2-carboxylic acid (3-hydroxy-3,4,5,6-tetrahydro-2H-[1,4′]bi-pyridinyl-3′-yl)-amide]",> 6.00,> 6.00,> 6.00,,,
"Nc1ccc(-c2ccccc2F)nc1C(=O)Nc1cnccc1-c1ccncc1Cl [Example 615, 3-amino-N-(3′-chloro-4,4′-bipyridin-3-yl)-6-(2-fluorophenyl)pyridine-2-carboxamide]",> 6.00,> 6.00,> 6.00,,,
"Nc1ccc(-c2ccccc2F)nc1C(=O)Nc1cnccc1N1CCC[C@H](O)C1 [Example 660, 3-Amino-6-(2-fluoro-phenyl)-pyridine-2-carboxylic acid (3-hydroxy-3,4,5,6-tetrahydro-2H-[1,4′]bipyridinyl-3′-yl)-amide]",> 6.00,> 6.00,> 6.00,,,
